Earlier results on two compounds are cited in patent US20240066021A1, “METHODS FOR OPTIMIZING CFTR-MODULATOR THERAPY” (Children's Hospital Medical Center, priority 2021, published 2024).

One data set has as its target CENP-E (Homo sapiens, UniProt Q02224). The following applies: Target CENP-E, Gene Symbol CENPE.
The target in the next data set is T1, UFO (Homo sapiens, UniProt P30530).
T1 sequence (P30530 26-894): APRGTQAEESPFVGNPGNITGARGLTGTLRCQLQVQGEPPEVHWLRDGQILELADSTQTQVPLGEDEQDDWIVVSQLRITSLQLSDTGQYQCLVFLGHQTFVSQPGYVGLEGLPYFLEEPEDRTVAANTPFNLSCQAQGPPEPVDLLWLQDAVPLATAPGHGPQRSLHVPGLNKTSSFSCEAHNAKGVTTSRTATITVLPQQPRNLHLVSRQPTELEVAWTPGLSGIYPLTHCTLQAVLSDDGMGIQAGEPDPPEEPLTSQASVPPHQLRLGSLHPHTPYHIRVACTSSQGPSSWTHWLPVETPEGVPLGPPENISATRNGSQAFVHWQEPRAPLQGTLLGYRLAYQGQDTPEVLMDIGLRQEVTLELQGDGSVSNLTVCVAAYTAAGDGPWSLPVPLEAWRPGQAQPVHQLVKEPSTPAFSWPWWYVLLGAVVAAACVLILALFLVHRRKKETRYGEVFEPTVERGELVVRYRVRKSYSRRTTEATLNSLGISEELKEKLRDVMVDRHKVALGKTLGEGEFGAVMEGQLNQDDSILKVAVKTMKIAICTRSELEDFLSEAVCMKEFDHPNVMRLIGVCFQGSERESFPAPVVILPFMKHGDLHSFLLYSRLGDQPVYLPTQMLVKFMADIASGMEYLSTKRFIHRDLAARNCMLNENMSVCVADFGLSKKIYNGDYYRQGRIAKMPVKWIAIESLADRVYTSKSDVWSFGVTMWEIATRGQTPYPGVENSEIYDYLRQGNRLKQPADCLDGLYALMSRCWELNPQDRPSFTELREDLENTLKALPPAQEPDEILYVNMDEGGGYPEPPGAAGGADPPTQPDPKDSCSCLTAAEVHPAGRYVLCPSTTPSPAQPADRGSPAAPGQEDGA
The following applies: Target UFO, Gene Symbol AXL.

CENP-E, sequence (Q02224 whole entry): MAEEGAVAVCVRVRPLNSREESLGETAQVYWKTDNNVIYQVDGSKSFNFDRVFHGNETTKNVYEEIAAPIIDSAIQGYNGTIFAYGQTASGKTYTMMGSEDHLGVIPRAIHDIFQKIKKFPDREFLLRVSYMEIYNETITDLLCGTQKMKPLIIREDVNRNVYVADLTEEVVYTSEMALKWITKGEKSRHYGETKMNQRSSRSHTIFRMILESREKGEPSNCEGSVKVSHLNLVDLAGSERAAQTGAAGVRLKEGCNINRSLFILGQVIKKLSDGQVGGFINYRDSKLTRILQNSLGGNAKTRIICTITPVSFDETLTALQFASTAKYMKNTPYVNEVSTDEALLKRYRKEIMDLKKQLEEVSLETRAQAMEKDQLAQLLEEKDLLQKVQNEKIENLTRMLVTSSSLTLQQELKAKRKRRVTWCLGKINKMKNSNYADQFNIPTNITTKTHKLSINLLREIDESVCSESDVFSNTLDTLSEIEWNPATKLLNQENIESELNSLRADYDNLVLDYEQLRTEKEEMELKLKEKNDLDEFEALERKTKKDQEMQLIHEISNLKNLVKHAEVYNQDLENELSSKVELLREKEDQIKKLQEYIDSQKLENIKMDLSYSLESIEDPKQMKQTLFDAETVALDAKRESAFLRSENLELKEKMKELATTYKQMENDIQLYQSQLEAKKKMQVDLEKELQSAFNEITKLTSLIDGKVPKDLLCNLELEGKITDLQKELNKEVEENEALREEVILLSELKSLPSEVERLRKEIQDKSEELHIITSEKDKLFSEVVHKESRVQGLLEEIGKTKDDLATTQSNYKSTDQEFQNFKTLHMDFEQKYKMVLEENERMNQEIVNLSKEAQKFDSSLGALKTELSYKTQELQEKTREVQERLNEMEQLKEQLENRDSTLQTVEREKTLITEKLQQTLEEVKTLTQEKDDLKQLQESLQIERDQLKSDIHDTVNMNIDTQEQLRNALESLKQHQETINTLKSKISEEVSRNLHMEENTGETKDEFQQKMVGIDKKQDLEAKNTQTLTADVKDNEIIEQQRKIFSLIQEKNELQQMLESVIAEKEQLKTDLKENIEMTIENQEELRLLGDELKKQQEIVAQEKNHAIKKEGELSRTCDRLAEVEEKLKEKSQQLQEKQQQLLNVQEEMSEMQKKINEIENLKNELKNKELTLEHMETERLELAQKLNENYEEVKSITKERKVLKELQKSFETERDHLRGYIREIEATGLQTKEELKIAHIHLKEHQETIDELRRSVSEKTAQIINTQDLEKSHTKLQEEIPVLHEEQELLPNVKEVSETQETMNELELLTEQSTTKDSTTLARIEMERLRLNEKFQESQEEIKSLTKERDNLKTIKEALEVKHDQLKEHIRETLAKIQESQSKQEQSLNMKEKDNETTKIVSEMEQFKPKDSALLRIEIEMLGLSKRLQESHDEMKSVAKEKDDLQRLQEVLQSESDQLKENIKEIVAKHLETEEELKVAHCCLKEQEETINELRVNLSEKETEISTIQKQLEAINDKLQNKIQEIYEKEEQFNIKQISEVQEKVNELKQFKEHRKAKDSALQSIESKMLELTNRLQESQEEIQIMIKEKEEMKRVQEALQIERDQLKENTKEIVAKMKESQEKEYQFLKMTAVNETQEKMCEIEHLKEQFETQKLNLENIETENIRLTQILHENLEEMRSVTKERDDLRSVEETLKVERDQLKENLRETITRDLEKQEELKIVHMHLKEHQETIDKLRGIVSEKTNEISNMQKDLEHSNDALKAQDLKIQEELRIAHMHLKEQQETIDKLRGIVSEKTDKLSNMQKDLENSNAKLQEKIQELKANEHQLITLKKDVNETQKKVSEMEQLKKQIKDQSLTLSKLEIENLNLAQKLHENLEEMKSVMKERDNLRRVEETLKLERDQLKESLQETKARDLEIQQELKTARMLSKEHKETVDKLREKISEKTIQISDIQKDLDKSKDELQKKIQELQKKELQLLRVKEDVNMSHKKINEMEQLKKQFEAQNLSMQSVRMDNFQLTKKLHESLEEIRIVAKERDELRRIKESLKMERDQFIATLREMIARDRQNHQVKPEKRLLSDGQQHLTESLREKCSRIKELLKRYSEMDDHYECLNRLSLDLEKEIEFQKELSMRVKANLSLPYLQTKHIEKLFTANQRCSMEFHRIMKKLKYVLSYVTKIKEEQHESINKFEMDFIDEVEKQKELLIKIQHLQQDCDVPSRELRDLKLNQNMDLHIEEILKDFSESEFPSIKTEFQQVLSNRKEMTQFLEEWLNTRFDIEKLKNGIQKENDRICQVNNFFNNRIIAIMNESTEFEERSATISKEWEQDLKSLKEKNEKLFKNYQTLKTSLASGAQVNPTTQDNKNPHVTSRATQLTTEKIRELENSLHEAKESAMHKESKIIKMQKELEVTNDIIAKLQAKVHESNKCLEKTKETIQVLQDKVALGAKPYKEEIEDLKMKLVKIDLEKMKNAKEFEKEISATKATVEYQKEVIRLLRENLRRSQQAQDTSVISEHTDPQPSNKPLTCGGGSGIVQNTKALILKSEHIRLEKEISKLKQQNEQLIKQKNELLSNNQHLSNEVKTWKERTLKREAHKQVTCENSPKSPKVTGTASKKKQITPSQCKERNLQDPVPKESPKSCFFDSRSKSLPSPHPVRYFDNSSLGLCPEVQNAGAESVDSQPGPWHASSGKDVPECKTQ

For `CC(C)Oc1ccc(C(=O)N[C@H](CNC(=O)CN(C)C)Cc2ccc(-c3cn4cccc([C@H](C)O)c4n3)cc2)cc1Cl` [GSK-923295], the Effect result on CENP-E is listed as “Inhibition”.

As to `COc1cc2c(Oc3ccc(NC(=O)C4(C(=O)Nc5ccc(F)cc5)CC4)cc3F)ccnc2cc1OCCCN1CCOCC1` [Foretinib], the Effect entry on UFO was “Inhibition”.
